Experimental data taken from EP4574151A1, “INHIBITORS OF G12V-MUTATED RAS PROTEIN TO TREAT CANCER” (Personather Spolka Z Ograniczona Odpowiedzialnoscia, priority 2023, dated 2025).

Key:
NCI-H1975 = test: Toxicity against cancer cells expressing wild type RAS; assay type: cell-based; conditions: summary statement
Description: The results of in vitro analyses were presented in the examples. Commercially available cancer cell lines were used for the studies, including SW480, SW620, and COR-L23, showing endogenous expression of KRASG12V, as well as a cell line with exogenously introduced KRASG12V mutation (using methods of genetic engineering) - the DK-MGEGFRvIIIKRASG12V line. Additionally, the cancer cell line NCI- H1975, characterized by the expression of wild type RASWT proteins, was also analyzed.

[1] = tested on: SW620 cells (with RASG12V mutation); test: Crystal violet cytotoxicity test (IC50) in KRASG12V positive cells; assay type: cell-based; conditions: summary statement
Text: IC50 (half-maximal inhibitory concentration) is the concentration value of a tested compound which inhibits biochemical and biological functions of cells in half of the tested population. Determining this indicator is extremely important for assessing the cytotoxicity of molecules with therapeutic potential.
The first step in developing the methodology for determining IC50 was to conduct density tests to determine the appropriate number of cells to use in cytotoxicity tests. The different content of bovine fetal serum in the culture medium was also investigated to rule out any potential impact on the reduction in cell count, regardless of the analyzed molecules.
(§1) As a research model, colon cancer and lung cancer cell lines (sensitive lines) were used, including SW620, SW480, and COR-L23, respectively, which are characterized by the KRASG12V gene mutation and lack of other alterations in genes belonging to the RAS protein signaling pathway, as well as a stable line of normal cells (mouse fibroblasts), which serve as a platform for evaluating the impact of tested compounds on non-cancer cells. Below is the result for one of the analyzed cell lines with the mutation. Similar differences in IC50 values compared to normal cells were obtained for the other cell lines mentioned above with the RASG12V mutation.
(§2) The effect of molecules on the biology of selected cell lines to assess their cytotoxicity using the IC50 indicator was carried out according to the protocol below: • 1. The cells of the tested lines were seeded in wells of a 96-well plate at specified densities. • 2. After seeding, the cells were subjected to a 24-hour incubation in medium with a 1% and 2.5% addition of serum (sensitive lines) or in medium with a 0.5% addition of serum (normal line). • 3. The cells were exposed to selected molecules at selected concentrations. The control was provided by the culture medium without any added compounds. Concentrations of the tested molecules [uM]: • □ NIH3T3: 500; 250; 125; 62,5; 31,25 • □ SW620: 60; 30; 15; 7,5; 3,75 • 4. After 72 hours of incubation, the culture medium was removed and the cells were washed twice with buffer saline solution (PBS). Then, the cells were incubated for 10 minutes with a 0.1% solution of crystal violet at room temperature (Merck Millipore). • 5. After 10 minutes, the crystal violet solution was removed and the wells of the 96-well plate were washed twice with PBS solution. • 4. 50% ice-cold acetic acid solution was added to each well and incubated again for 10 minutes at room temperature on a shaker at 650 rpm. • 5. Absorbance measurement was performed using a plate reader, at a wavelength of λ = 540 nm

BALB/c mice = test: Acute toxicity after oral administration (Acute Toxicity test TG425); assay type: in vivo; conditions: female BALB/c mice, oral by gastric probe, 40 mg of substance in corn oil, three mice, observed two weeks
Text: The study was planned according to Acute Toxicity Test 425 (oral administration) - higher-lower-dose procedure, in accordance with the OECD regulation of October 3, 2008. The test procedure described in these guidelines is useful in minimizing the number of animals needed to estimate the acute toxicity after oral administration of potential drugs. In addition to the LD50 assessment and confidence intervals, the test allows for the observation of signs of toxicity. For this purpose, an experiment was agreed upon with the Local Ethics Committee for Animal Experimentation, using BALB/c mice. The TG425 method allows for the estimation of LD50 values with confidence intervals, and the results allow for the classification of substances according to the global harmonized system for the classification of chemicals that cause acute toxicity.
A sequential test, utilizing a maximum of 5 animals, was applied, which is known as the limit test. A test dose of either 2000 or uniquely 5000 mg/kg can be used. The testing procedures at 2000 and 5000 mg/kg differ slightly (see Sections 23-25 for the limit test at 2000 mg/kg and Sections 26-30 for the limit test at 5000 mg/kg). The selection of a sequential testing plan increases the statistical power, and a deliberate deviation from the limit test rejection procedure was made for compounds with an LD50 near the limit dose; i.e. committing an error on the side of caution. As with any limit test protocol, the probability of correct compound classification will decrease, as the actual LD50 value more closely resembles the limit dose.
• 1. Female Balb/c mice, which were 50-56 days postpartum, were used for the purposes of this experiment. • 2. Mice underwent a 1-week quarantine after being transported to the laboratory. • 3. The studied molecules (PER154A, PER160A, PER170A, PER176A) were suspended according to the TG425 protocol, i.e. 40 mg of substance in […] of laboratory corn oil and orally administered through a plastic gastro probe (used: 20ga (0.9 mm OD x 0.5 mm ID), 38 mm), which was suitable for the size of the animal (17-21 g). The mice were observed and weighed almost daily. • 4. Mouse housing conditions: up to 4 mice per cage; temperature: 23.2 - 23.40°C; humidity: 27.6 - 40.9% relative humidity. • 5. Two weeks later (time counted separately for each mouse), a resection was performed to analyze internal organs for any abnormalities.

[2] = tested on: NIH/3T3 cell line - immortalized mouse fibroblasts; test: Crystal violet cytotoxicity test in normal cells; assay type: cell-based; conditions: summary statement; normal cells NIH/3T3 and PER49
Text: To evaluate the toxicity of the tested compound on normal cells, the NIH/3T3 cell line - immortalized mouse fibroblasts and normal pericytes (PER49) were used.
as §1, §2

Row | Compound | toxicity against cancer cells expressing normal RAS protein (NCI-H1975) | toxicity against cancer cells expressing KRASG12V [1] | safety in acute oral toxicity test (BALB/c mice) | toxicity against normal cells [2]
1 | Cc1ccc(NC(=O)c2ccc3c(c2)C2C4CCC(C4)C2C(c2ccccc2)N3)cc1C (centres unmarked) [PER170A] | no toxicity | toxicity | safe for mice | no toxicity
2 | O=C(Nc1ccc(Br)c(Cl)c1)c1ccc2c(c1)C1C3CCC(C3)C1C(c1ccccc1)N2 (centres unmarked) [PER176A] | no toxicity | toxicity | safe for mice | no toxicity
